Molecular target: T1, EtfAB; EtfaB (EtfAB from which α-FAD was removed) (Acidaminococcus fermentans, UniProt D2RIQ2+D2RIQ3)
T1 construct: gene Acfer_0555; recombinant from pET-11a by autoinduction; AB heterodimer, 66 kDa; EtfAB holds α-FAD and β-FAD; EtfaB made by removing FAD from the A-subunit (phenyl Sepharose, KBr); with Electron transfer flavoprotein subunit alpha
T1 sequence (D2RIQ2 1-263): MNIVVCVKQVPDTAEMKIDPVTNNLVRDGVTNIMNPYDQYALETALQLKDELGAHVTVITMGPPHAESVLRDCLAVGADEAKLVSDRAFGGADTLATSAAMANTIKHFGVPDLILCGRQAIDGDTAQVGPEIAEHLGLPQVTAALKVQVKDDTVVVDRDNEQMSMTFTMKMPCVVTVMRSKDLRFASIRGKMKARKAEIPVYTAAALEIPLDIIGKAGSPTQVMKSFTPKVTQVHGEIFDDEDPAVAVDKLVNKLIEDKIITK
T1 sequence (D2RIQ3 1-340): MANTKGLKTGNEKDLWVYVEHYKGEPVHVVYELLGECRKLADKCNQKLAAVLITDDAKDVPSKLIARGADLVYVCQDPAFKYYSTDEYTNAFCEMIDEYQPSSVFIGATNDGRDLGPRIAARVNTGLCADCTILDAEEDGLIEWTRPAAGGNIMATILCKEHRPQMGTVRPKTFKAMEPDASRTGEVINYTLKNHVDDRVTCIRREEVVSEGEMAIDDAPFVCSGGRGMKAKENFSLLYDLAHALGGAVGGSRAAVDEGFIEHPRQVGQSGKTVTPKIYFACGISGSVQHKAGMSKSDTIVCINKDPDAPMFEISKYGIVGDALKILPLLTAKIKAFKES
Assay: anaerobic stopped-flow, kobs at […] nm versus [NADH]
Assay type: biochemical
Details: EtfaB form (β-FAD only, α-FAD removed), slow-reacting minor population (~16%); 50 mM potassium phosphate pH 7.0, 4 °C; site at β-FAD

Kd: 3.8 ± 0.2 mM
Compound: NC(=O)C1=CN([C@@H]2O[C@H](COP(=O)(O)OP(=O)(O)OC[C@H]3O[C@@H](n4cnc5c(N)ncnc54)[C@H](O)[C@@H]3O)[C@@H](O)[C@H]2O)C=CC1 [NADH]

Source: PMC7948398, “Rapid kinetics reveal surprising flavin chemistry in bifurcating electron transfer flavoprotein from Acidaminococcus fermentans” (The Journal of Biological Chemistry, 2020)
